Data published in patent publication US20100323990A1, “SHIP 1 MODULATOR PRODRUGS” (THE UNIVERSITY OF BRITISH COLUMBIA, priority 2006, published 2010).

Test system: SHIP+/+ bone marrow derived macrophages
Test: LPS-stimulated TNFα production in SHIP+/+ bone marrow derived macrophages
Assay type: cell-based, mice
Details: for suppression of TNFα production: SHIP+/+ cells, 10 ng/mL LPS 2 h
Experimental: Bone marrow cells were aspirated from 4 to 8 week old C57B16×129Sv mixed background mice and SHIP^+/+ and SHIP^−/− mast cells prepared as described previously. Bone marrow derived macrophages from SHIP^+/+ and SHIP^−/− mice were obtained and maintained in IMDM supplemented with 10% FCS, 150 μM MTG, 2% C127 cell conditioned medium as a source of macrophage colony stimulating factor (M-CSF) (macrophage medium)
LPS stimulation of macrophages. For the analysis of LPS-stimulated TNFα production, 2×10^5 cells were plated the night before in 24 well plates in macrophage medium. The next day, the medium was changed and AQX-016A or carrier was added to cells at the indicated concentrations for 30 min prior to the addition of 10 ng/mL LPS. Supernatants were collected for TNFα determination by ELISA (BD Biosciences, Mississauga, ON, Canada). For analysis of intracellular signaling, 2×10^6 cells were plated the night before in 6 cm tissue culture plates. The next day, the cells were cultured in macrophage medium without M-CSF for 1 hr at 37° C. and then pretreated with AQX-016A or carrier for 30 min prior to the addition of 10 ng/mL LPS for 15 min. Cells were washed with 4° C. PBS and resuspended in lysis buffer (50 mM Hepes, 2 mM EDTA, 1 mM NaVO4, 100 mM NaF, 50 mM NaPPi and 1% NP40) supplemented with Complete Protease Inhibitor Cocktail (Roche, Montreal, Canada). Lysates were rocked at 4° C. for 30 min and clarified by centrifuging 20 min at 12000×g. Lysates were then made 1× in Laemmli's buffer, boiled 2 min and loaded onto 7.5% SDS polyacrylamide […]. Immunoblot analysis for phospho PKB (Cell Signalling, Mississauga, Ont), SHIP and actin (Santa Cruz, Santa Cruz, Calif.) were carried out as described previously. Stimulation of mast cells by FcεRI crosslinking. Mast cells were pre-loaded overnight in BMMC medium lacking IL-3 with 0.1 μg/ml anti-DNP IgE (SPE-7, Sigma, Oakville, Ont). For calcium flux measurements, cells were incubated with 2 μM fura 2-acetoxymethyl ester (Molecular Probes, Eugene, Oreg.) in Tyrode's buffer at 23° C. for 45 min. Cells were then washed and incubated in the presence of vehicle control, LY294002 or AQX-016A 30 min prior to stimulation with the indicated concentration of DNP-human serum albumin (DNP-HSA). Calcium influx was monitored by spectrofluorometry. For analysis of intracellular signaling, cells were pre-loaded with anti-DNP IgE as above, pre-treated with AQX-016A or buffer control for 30 min at 37° C. and stimulated with 20 ng/ml DNP-HSA for 5 min. Total cell lysates were then prepared and analyzed for phospho-PKB, phospho-p38^MAPK, phospho-MAPK, Grb-2 (Cell Signalling, Mississauga, Ont) and SHIP^6 by immunoblot analysis.
The target specificity and biological efficacy of AQX-016A were assessed by comparing AQX-016A's effects on PI3K-regulated processes in primary SHIP^+/+ vs SHIP^−/− macrophages and mast cells. […] LPS stimulation of macrophages is associated with a PIP3-dependent release of pro-inflammatory mediators such as TNFα. The action of AQX-016A on SHIP^+/+ vs SHIP^−/− bone marrow derived macrophages was examined. Cells were pretreated for 30 min with AQX-016A prior to stimulation with 10 ng/mL of LPS for 2 h. AQX-016A was able to suppress TNFα production in SHIP^+/+ cells by 30% at 3 μM and 50% at 15 μM (FIG. 8A). […] Activation of mast cells via IgE+ antigen crosslinking of their IgE receptors results in elevation of intracellular calcium levels.

EC50 (Mus musculus, Macrophage, SHIP+/+ macrophages, LPS stimulated, read-out: EC50 for inhibition of TNFα production) [nM] | Structure (SMILES) | suppression of TNFα production (3 μM) [%] | suppression of TNFα production (15 μM) [%] | TNFα production, SHIP+/+ vs SHIP−/− macrophages (LPS stimulated)
– | Cc1cc(O)c(O)c2c1[C@]1(C)CCC3C(C)(C)CCC[C@]3(C)[C@H]1C2 (stereo partly shown) [AQX-016A] | 30 | 50 | –
300 to 600 | Cc1cc(O)cc2c1[C@]1(C)CCC3C(C)(C)CCC[C@]3(C)[C@H]1C2 (stereo partly shown) [Compound 100] | – | – | selectively inhibited
